As usually defined, the T/C is the ratio of treated to control.

Values joined by “and” are separate entries in the source; they are usually repeats but may differ in a detail not shown here. Identical values can stand only once. *1 amine or outer side, *2 acyl side, *3 side chain or, on linkers, in order; H or OH if unused. Where a SMILES comes first, the peptide text is derived from it. Bridges are numbered along the chain shown (N, C = ends). Roman numbers before positions name the chains, in order. [ ]: non-standard residue; d: D form. Actinocin(9to1) = Cc1c2oc3c(C)ccc(C(=O)[*:1])c3nc-2c(C(=O)[*:2])c(N)c1=O; aThr = C[C@H](O)[C@H](N)C(=O)O; NMeV = CN[C@H](C(=O)O)C(C)C; Sar = CNCC(=O)O

This experiment deals with HT29 xenograft, nude mice, s.c., tumor weight T/C%. Briefly: NCI In Vivo Anticancer Drug Screen. Data for tumor model HT29;CX-1 Human Adenocarcinoma (MER+) (subcutaneous) in NU/NU Swiss (nude) mice. Particulars: endpoint: optimum tumor weight change, higher = larger tumour. As for the experimental part:
The antitumor activity of compounds was measured in mice bearing transplantable tumors. Survival or tumor size were measured and the results are expressed as the measurement made in the treated group (T) divided by the measurement made in the vehicle treated control group (C). The tumor model used in this assay is HT29;CX-1 Human Adenocarcinoma (MER+) (subcutaneous) in NU/NU Swiss (nude) mice

The mark [1] stands for this setting: dose: 3.75 mg/kg/injection, schedule: Q04DX003 (ip), vehicle: saline.
[2] abbreviates: dose: 100.0 mg/kg/injection, schedule: Q04DX003 (ip), vehicle: suspension in saline.
[3] abbreviates: dose: 200.0 mg/kg/injection, schedule: Q04DX003 (ip), vehicle: suspension in saline.
Where [4] appears, read: dose: 400.0 mg/kg/injection, schedule: Q04DX003 (ip), vehicle: suspension in saline.
Where [5] appears, read: dose: 800.0 mg/kg/injection, schedule: Q04DX003 (ip), vehicle: suspension in saline.
The mark [6] stands for this setting: dose: 12.5 mg/kg/injection, schedule: Q04DX003 (ip), vehicle: saline with Tween-80.
Where [7] appears, read: dose: 100.0 mg/kg/injection, schedule: Q04DX003 (ip), vehicle: Klucel (hydroxypropylcellulose) (HPC).
Setting [8] is: dose: 200.0 mg/kg/injection, schedule: Q04DX003 (ip), vehicle: Klucel (hydroxypropylcellulose) (HPC).
Setting [9] is: dose: 50.0 mg/kg/injection, schedule: Q04DX003 (ip), vehicle: saline.
The mark [10] stands for this setting: dose: 100.0 mg/kg/injection, schedule: Q04DX003 (ip), vehicle: saline.
[11] abbreviates: dose: 200.0 mg/kg/injection, schedule: Q04DX003 (ip), vehicle: saline.

`Cc1c(N)nc(C(CC(N)=O)NCC(N)C(N)=O)nc1C(=O)NC(C(=O)NC(C)C(O)C(C)C(=O)NC(C(=O)NCCc1nc(-c2nc(C(=O)NCCCNC(C)c3ccccc3)cs2)cs1)C(C)O)C(OC1OC(CO)C(O)C(O)C1OC1OC(CO)C(O)C(OC(N)=O)C1O)c1cnc[nH]1` (centres undefined): under setting [1], the T/C is 70 % of control.
Regarding `CC(C)=CCNc1ncnc2c1ncn2C1OC(CO)C(O)C1O` (centres undefined), the T/C by setting is: under setting [2], 106 % of control; under setting [3], 77 % of control; under setting [4], 65 % of control; under setting [5], 64 % of control.
As for `O=C(NC1CCCCC1)OCc1c(COC(=O)NC2CCCCC2)c(-c2ccc(Cl)c(Cl)c2)n2c1CCC2`, the T/C reads like this: under setting [2], 96 % of control; under setting [3], 90 % of control; under setting [4], 92 % of control; under setting [5], 65 % of control.
For the molecule `O=C/C(Cl)=C(/Cl)C(=O)O`, the T/C under setting [6] is 86 % of control.
As for `O=C1N[C@@H]([C@H]2CC[C@H](Cl)CN2)C(=O)N[C@H]1[C@H]1CC[C@H](Cl)CN1`, the T/C (dose: 0.31 mg/kg/injection, schedule: Q01DX001 (ip), vehicle: water) was 53 % of control; the T/C (dose: 0.63 mg/kg/injection, schedule: Q01DX001 (ip), vehicle: water) was 64 % of control; the T/C (dose: 1.25 mg/kg/injection, schedule: Q01DX001 (ip), vehicle: water) was 79 % of control.
Consider `CCc1ccccc1N1CCN(C(=O)c2cc(OC)c(OC)c(OC)c2)CC1`, for which the T/C (dose: 25.0 mg/kg/injection, schedule: Q04DX003 (ip), vehicle: Klucel (hydroxypropylcellulose) (HPC)) is 108 % of control; the T/C (dose: 50.0 mg/kg/injection, schedule: Q04DX003 (ip), vehicle: Klucel (hydroxypropylcellulose) (HPC)) was 63 % of control; the T/C under setting [7] was 75 % of control; the T/C under setting [8] is 82 % of control.
Regarding `N/C(=N\O)c1cn(C2OC(CO)C(O)C2O)c2ncnc(N)c12` (centres undefined), the T/C (dose: 5.0 mg/kg/injection, schedule: Q04DX003 (ip), vehicle: Klucel (hydroxypropylcellulose) (HPC)) was 91 % of control; the T/C (dose: 10.0 mg/kg/injection, schedule: Q04DX003 (ip), vehicle: Klucel (hydroxypropylcellulose) (HPC)) is 63 % of control; the T/C (dose: 20.0 mg/kg/injection, schedule: Q04DX003 (ip), vehicle: Klucel (hydroxypropylcellulose) (HPC)) is 47 % of control.
On to `N=C(N)Sc1ccccn1`, for which the T/C by setting is: under setting [9], 77 % of control; under setting [10], 112 % of control; under setting [11], 65 % of control.
In the case of `COc1cc([C@@H]2c3cc4c(c(O)c3C[C@H]3COC(=O)[C@@H]32)OCO4)cc(OC)c1O`, the T/C by setting is: (dose: 3.13 mg/kg/injection, schedule: Q04DX003 (ip), vehicle: saline) 63 % of control; (dose: 6.25 mg/kg/injection, schedule: Q04DX003 (ip), vehicle: saline) 53 % of control.
Regarding `CC(CN1CC(=O)NC(=O)C1)N1CC(=O)NC(=O)C1` (centres undefined), the T/C by setting is: (dose: 50.0 mg/kg/injection, schedule: Q04DX003 (ip), vehicle: suspension in saline) 73 % of control; under setting [2], 50 % of control; under setting [3], 57 % of control.
With `CC(=O)Oc1ccc[nH]c1=O`, the T/C (dose: 200.0 mg/kg/injection, schedule: Q04DX003 (ip), vehicle: saline with Tween-80) was 96 % of control and the T/C (dose: 400.0 mg/kg/injection, schedule: Q04DX003 (ip), vehicle: saline with Tween-80) was 111 % of control.
On to `CC(=O)OCC1OC(n2ccc(N)nc2=O)C(OC(C)=O)C1OC(C)=O` (centres undefined), for which the T/C under setting [2] is 65 % of control and 89 % of control; the T/C under setting [3] is 56 % of control.
For `O=c1[nH]cnc2n[nH]nc12`, the T/C under setting [7] is 67 % of control; the T/C under setting [8] was 67 % of control; the T/C (dose: 400.0 mg/kg/injection, schedule: Q04DX003 (ip), vehicle: Klucel (hydroxypropylcellulose) (HPC)) was 31 % of control.
Take `COc1cc([C@@H]2c3cc4c(c(O)c3C[C@H]3COC(=O)[C@@H]32)OCO4)cc(OC)c1OC`: the T/C (dose: 2.5 mg/kg/injection, schedule: Q04DX003 (ip), vehicle: saline) was 83 % of control; the T/C (dose: 5.0 mg/kg/injection, schedule: Q04DX003 (ip), vehicle: saline) is 114 % of control; the T/C (dose: 10.0 mg/kg/injection, schedule: Q04DX003 (ip), vehicle: saline) is 52 % of control.
In the case of `CC(C)CCCCCCCCCCCCC(=O)NCC(=O)NC1C(C)OC(Nc2ncnc3nc[nH]c23)C(O)C1O` (centres undefined), the T/C is 88 % of control (dose: 3.13 mg/kg/injection, schedule: Q04DX003 (ip), vehicle: distilled water + Tween-80); 58 % of control (dose: 3.13 mg/kg/injection, schedule: Q04DX003 (ip), vehicle: saline with Tween-80); 56 % of control and 66 % of control (dose: 6.25 mg/kg/injection, schedule: Q04DX003 (ip), vehicle: distilled water + Tween-80); 52 % of control (dose: 6.25 mg/kg/injection, schedule: Q04DX003 (ip), vehicle: saline with Tween-80); 55 % of control (dose: 12.5 mg/kg/injection, schedule: Q04DX003 (ip), vehicle: distilled water + Tween-80); 40 % of control under setting [6]. For the same molecule, the T/C (dose: 25.0 mg/kg/injection, schedule: Q04DX003 (ip), vehicle: distilled water + Tween-80) was 73 % of control.
With `O=C(O)C1(C(=O)O)CCC1.[NH2-].[NH2-].[Pt+2]`, the T/C by setting is: (dose: 6.25 mg/kg/injection, schedule: Q04DX003 (ip), vehicle: dextrose) 109 % of control; (dose: 25.0 mg/kg/injection, schedule: Q04DX003 (ip), vehicle: dextrose) 69 % of control.
Turning to `Cc1c2oc3c(C)ccc(C(=O)N[C@@H]4C(=O)N[C@H](C(C)C)C(=O)N5CCC[C@H]5C(=O)N(C)CC(=O)N(C)[C@@H](C(C)C)C(=O)O[C@H]4C)c3nc-2c(C(=O)N[C@@H]2C(=O)N[C@H](C(C)C)C(=O)N3CCC[C@H]3C(=O)N(C)CC(=O)N(C)[C@@H](C(C)C)C(=O)O[C@H]2C)c(N)c1=O` (I: [aThr][dV]P[Sar][NMeV] / II: [aThr][dV]P[Sar][NMeV]; ester I:1-I:C, II:1-II:C; linker I:N-II:N via Actinocin(9to1)), the T/C by setting is: (dose: 150.0 micrograms/kg/injection, schedule: Q04DX003 (ip), vehicle: saline) 54 % of control; (dose: 300.0 micrograms/kg/injection, schedule: Q04DX003 (ip), vehicle: saline) 42 % of control.
For `Oc1ccc(O)cc1`, the T/C under setting [9] is 173 % of control.
On to `COc1cccc2c1C(=O)c1c(O)c3c(c(O)c1C2=O)C[C@@](O)(C(=O)CO)C[C@@H]3OC1CC(N)C(O)C(C)O1` (some centres undefined), for which the T/C (dose: 2.0 mg/kg/injection, schedule: Q04DX003 (ip), vehicle: water) was 83 % of control.
Regarding `C=CC(=O)NCNC(=O)C=C`, the T/C by setting is: under setting [9], 78 % of control; under setting [10], 65 % of control; under setting [11], 60 % of control.
Regarding `Cc1c(N)nc([C@H](CC(N)=O)NC[C@H](N)C(N)=O)nc1C(=O)N[C@H](C(=O)N[C@H](C)[C@@H](O)[C@H](C)C(=O)N[C@H](C(=O)NCCc1nc(-c2nc(C(=O)NCCC[S+](C)C)cs2)cs1)[C@@H](C)O)C(OC1OC(CO)C(O)C(O)C1OC1OC(CO)C(O)C(OC(N)=O)C1O)c1cnc[nH]1` (some centres undefined), the T/C is, setting by setting: under setting [1], 71 % of control; (dose: 4.0 mg/kg/injection, schedule: Q04DX003 (ip), vehicle: saline) 64 % of control; (dose: 7.5 mg/kg/injection, schedule: Q04DX003 (ip), vehicle: saline) 50 % of control and 70 % of control; (dose: 7.5 mg/kg/injection, schedule: Q04DX004 (ip), vehicle: saline) 37 % of control; (dose: 8.0 mg/kg/injection, schedule: Q04DX003 (ip), vehicle: saline) 49 % of control; (dose: 15.0 mg/kg/injection, schedule: Q04DX004 (ip), vehicle: saline) 26 % of control. Moreover, the T/C (dose: 16.0 mg/kg/injection, schedule: Q04DX003 (ip), vehicle: saline) was 28 % of control and 33 % of control; the T/C (dose: 32.0 mg/kg/injection, schedule: Q04DX003 (ip), vehicle: saline) was 11 % of control.
In the case of `CN(N=O)C(=O)N[C@@H](C=O)[C@@H](O)[C@H](O)[C@H](O)CO`, the T/C was 82 % of control under setting [10] and 98 % of control under setting [11].
